From patent publication US8952020B2, “Optically active pyrazolylaminoquinazoline, and pharmaceutical compositions and methods of use thereof” (Ambit Biosciences Corp., priority 2010, dated 2015) come the findings set out here.

In general, IC50 refers to the concentration that gives 50% inhibition. Broadly, the bioavailability is the share of a dose that reaches the circulation, judged against a reference dose that is usually intravenous. What is called Cmax is the maximum level reached in the sampled fluid or tissue. The EC50 is the concentration at which the effect is half-maximal.

One data set deals with T1, phosphodiesterase PDE5 (Homo sapiens, UniProt O76074).
T1 construct: from tissue; host or cells: human platelets
Description: Inhibition of phosphodiesterase PDE5. Type of data set: biochemical. Conditions: human platelets; read-out: IC50 against phosphodiesterase PDE5. The protocol:
Acta 1976, 429, 485-497 and Nicholson et al., Trends Pharmacol. Sci. 1991, 12, 19-27. Human platelets were used in this assay. The final DMSO concentration in the assay was about 1%. The assay was pre-incubated at 25° C. for 15 min and then incubated at 25° C. for 20 min in an incubation buffer (50 mM Tris-HCl, pH 7.5, 5 mM MgCl2). The assay was quantitated by measuring the amount of [^3H]guanosine.

The next data set addresses T2, CYP2C8 (Homo sapiens, UniProt P10632).
T2 sequence (P10632 1-490): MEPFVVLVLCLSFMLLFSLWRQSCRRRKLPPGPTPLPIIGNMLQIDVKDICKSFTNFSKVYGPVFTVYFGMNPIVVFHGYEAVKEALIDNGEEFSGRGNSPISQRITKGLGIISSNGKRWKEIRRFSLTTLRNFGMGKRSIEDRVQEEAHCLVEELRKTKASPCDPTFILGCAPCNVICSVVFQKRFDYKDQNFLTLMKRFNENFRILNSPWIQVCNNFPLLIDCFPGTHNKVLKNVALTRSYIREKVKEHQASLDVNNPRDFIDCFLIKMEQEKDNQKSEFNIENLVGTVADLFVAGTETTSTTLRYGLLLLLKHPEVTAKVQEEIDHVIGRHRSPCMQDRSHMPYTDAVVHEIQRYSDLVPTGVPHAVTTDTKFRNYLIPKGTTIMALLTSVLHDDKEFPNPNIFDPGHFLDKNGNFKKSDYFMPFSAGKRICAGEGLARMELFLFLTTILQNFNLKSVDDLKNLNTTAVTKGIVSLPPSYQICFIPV
Description: CYP450 inhibition in human liver microsomes. (Microsomes from liver hold many membrane-bound enzymes, among them those of drug oxidation.)

The next data set has as its target T3, CYP2B6 (Homo sapiens, UniProt P20813).
T3 sequence (P20813 1-491): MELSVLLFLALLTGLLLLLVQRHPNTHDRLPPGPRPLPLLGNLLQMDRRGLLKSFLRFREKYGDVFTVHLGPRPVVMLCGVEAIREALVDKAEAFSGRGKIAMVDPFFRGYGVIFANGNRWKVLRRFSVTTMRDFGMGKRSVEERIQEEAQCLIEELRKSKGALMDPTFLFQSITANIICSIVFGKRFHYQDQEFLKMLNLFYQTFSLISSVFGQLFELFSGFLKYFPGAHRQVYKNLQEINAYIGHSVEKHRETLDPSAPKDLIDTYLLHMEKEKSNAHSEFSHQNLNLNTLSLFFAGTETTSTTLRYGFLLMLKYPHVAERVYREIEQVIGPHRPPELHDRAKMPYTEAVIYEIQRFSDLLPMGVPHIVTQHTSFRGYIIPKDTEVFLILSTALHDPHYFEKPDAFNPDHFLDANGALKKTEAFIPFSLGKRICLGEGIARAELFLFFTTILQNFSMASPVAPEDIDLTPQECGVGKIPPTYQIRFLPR
In words: CYP450 inhibition in human liver microsomes.

A short description of data set [1]: Pharmacokinetic studies in monkeys. To be noted: for AUCall / Cl-obs / Cmax: monkeys.
Description: (§1) Three male cynomolgus monkeys were fasted overnight and through four hours postdose. Two 100 μL aliquots of each dosing formulation were taken predose. Three monkeys were given a single gavage dose of a test compound at 10 mg/kg, followed by an approximately 10.0 mL tap water flush of the gavage tube. After a 1 week washout period, two of the three monkeys received a single IV bolus dose of a test compound at 1 mg/kg in a peripheral vein followed by approximate 1.0 mL saline flush.
In a further data set the target is T4, CYP1A2 (Homo sapiens, UniProt P05177).
T4 sequence (P05177 1-516): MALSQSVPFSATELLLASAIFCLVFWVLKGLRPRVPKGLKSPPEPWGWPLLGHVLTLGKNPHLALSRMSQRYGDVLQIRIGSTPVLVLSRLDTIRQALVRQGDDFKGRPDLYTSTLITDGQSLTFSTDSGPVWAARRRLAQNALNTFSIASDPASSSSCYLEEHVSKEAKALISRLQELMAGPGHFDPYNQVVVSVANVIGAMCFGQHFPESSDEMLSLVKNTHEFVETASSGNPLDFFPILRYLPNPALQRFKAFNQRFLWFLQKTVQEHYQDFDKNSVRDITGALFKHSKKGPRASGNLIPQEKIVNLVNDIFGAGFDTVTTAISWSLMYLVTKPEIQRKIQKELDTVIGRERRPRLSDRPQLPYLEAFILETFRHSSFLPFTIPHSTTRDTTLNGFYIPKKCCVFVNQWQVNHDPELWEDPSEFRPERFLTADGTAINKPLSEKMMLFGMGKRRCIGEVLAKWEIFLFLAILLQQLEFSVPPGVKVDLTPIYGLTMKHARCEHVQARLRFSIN
Description: CYP450 inhibition in human liver microsomes.

A further data set deals with T5, melatonin MT (Homo sapiens, UniProt P48039).
T5 construct: expressed in transfected cells; host or cells: CHO-K1
Description: Melatonin MT GTPγS binding assay. Type of data set: biochemical. Conditions: GTPγS bound relative to 2-iodomelatonin response, CHO-K1 cells; read-out: IC50 against melatonin. Here is the method: […] CHO-K1 cells Chinese hamster ovary were used in this assay. The final DMSO concentration in the assay was about 0.4%. The assay mixture was incubated at 30° C. for 30 min in an incubation buffer (20 mM HEPES, pH 7.4, 100 mM NaCl, 10 mM MgCl2, 1 mM DTT, and 1 mM EDTA). The assay was quantitated by measuring the amount of [^35S]GTPγS bound relative to 2-iodomelatonin response.
For orientation: GTPγS is a poorly hydrolysed GTP analogue; its binding reports G protein activation.

Data set [2] relates to GM-CSFR/JAK2/STAT5 pathway in csTF-1 cells. In words: csTF-1 cell-based reporter assay. To be noted: Homo sapiens, GM-CSF at 2 ng/mL, beta-lactamase reporter, read-out: EC50, inhibition of GM-CSF stimulated reporter activity. Here is the method: After 16 hr incubation, cells were seeded at 2×10^5 cell/well in 50 μL volume, into Costar, clear bottom, 96-well assay plates. Serial dilutions of compounds were added to the plates with final DMSO concentration at 0.5% and GM-CSF at 2 ng/mL and the plates were then incubated at 30° C. and 5% CO2 for 4 hrs. The plates were brought to room temperature before adding Substrate Mixture according to manufacturer's protocol (Invitrogen, Catalog #K1085). The assay plates containing the substrate mixture were incubated in the dark at room temperature for 2 hrs. Blue and green fluorescence were measured with excitation at 409 nm and emission at 460 nm (for blue) and excitation at 409 nm and emission at 530 nm (for green) using Spectra Max Gemini EM.

The target of the next data set is CYP2D6 (Homo sapiens, UniProt P10635). In words: CYP450 inhibition in human liver microsomes.
The conditions of data set [3]: cynomolgus monkey, in vivo.
Description: as §1
Another data set is described as follows: in vivo. Conditions: male, cynomolgus monkey.
[4] abbreviates: Racemic administered IV 1 mg/kg, chiral analysis, label = analyte.
The mark [5] stands for this setting: Racemic administered PO 10 mg/kg, chiral analysis, label = analyte.
[6] abbreviates: compound administered IV 1 mg/kg, analyte = compound administered.
Where [7] appears, read: compound administered PO 10 mg/kg, analyte = compound administered.

Sequence of CYP2D6 (P10635 whole entry): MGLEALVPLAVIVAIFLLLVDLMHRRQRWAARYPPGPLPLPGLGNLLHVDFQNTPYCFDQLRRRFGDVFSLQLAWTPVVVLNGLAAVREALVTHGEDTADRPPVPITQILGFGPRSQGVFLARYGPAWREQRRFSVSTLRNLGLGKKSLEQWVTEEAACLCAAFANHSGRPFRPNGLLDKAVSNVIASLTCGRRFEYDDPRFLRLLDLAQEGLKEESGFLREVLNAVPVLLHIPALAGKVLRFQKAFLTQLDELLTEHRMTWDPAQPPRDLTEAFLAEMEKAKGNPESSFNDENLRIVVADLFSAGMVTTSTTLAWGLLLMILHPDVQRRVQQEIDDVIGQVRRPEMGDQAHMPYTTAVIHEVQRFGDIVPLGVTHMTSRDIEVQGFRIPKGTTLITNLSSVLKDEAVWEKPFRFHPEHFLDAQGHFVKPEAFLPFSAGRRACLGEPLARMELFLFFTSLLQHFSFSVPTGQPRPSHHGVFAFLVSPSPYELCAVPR
T5 sequence (P48039 whole entry): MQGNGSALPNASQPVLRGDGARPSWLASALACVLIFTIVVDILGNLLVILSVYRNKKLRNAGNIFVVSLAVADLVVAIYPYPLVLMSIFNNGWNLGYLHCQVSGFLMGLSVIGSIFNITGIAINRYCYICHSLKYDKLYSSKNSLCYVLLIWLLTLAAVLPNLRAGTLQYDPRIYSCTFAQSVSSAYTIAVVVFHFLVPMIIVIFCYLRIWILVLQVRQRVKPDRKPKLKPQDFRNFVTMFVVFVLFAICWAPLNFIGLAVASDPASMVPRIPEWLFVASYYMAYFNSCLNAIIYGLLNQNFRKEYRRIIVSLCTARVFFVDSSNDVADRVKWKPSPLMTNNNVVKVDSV
Description for in vivo: as §1

As for `Cc1cc(Nc2nc(C(O)c3ccc(F)cc3)nc3ccccc23)n[nH]1` (racemic) [Racemate], the IC50 on phosphodiesterase PDE5 was 9.34 µM; on CYP2C8, 23.1 µM; on CYP2B6, above 40 µM; against CYP1A2 it was below 0.31 µM; on melatonin MT it was 9.75 µM; against CYP2D6 it was above 40 µM. Also, the bioavailability in data set [1] (male, cynomolgus monkey, in vivo, 10 mg/kg) was above 100%. Moreover, the AUCall in data set [1] (setting [4]) came out at 2.19 µM·h; in data set [1] (setting [5]), 46.20 µM·h; in [1] (setting [6]) it was 2.19 µM·h; in data set [1] (setting [7]) it was 46.20 µM·h. The Cl-obs in [1] (setting [4]) and in data set [1] (setting [6]) was 21.27 mL/min/kg throughout. The Cmax in data set [1] (setting [5]) and in data set [1] (setting [7]) was 5.76 µM in each case. For the same molecule, the half-maximal effective concentration (EC50) in data set [2] worked out at 0.07 µM.
Turning to `Cc1cc(Nc2nc([C@H](O)c3ccc(F)cc3)nc3ccccc23)n[nH]1` [(R)(−)], the “share of the Cmax and AUC values determined for the racemic compound” value in [3] (male) is “over 85%”. The IC50 is 26.9 µM against CYP2C8, above 40 µM against CYP2B6, 1.7 µM on CYP1A2 and above 40 µM against CYP2D6. In the data set “in vivo”, this molecule came in with a bioavailability above 100%. The EC50 in data set [2] worked out at 0.075 µM.
Consider `Cc1cc(Nc2nc([C@@H](O)c3ccc(F)cc3)nc3ccccc23)n[nH]1` [(S)(+)], for which the “enantiomers present in plasma” value in [3] (po) was “both enantiomers were present in plasma in almost equal proportions”. The IC50 on CYP2C8 is 22.7 µM; against CYP2B6, above 40 µM; on CYP1A2, below 0.31 µM; on CYP2D6 it was above 40 µM. Besides, the bioavailability in the data set “in vivo” came to 89%. Moreover, the EC50 in [2] was found to be 0.038 µM.
